The target of the assay is Peptidyl-prolyl cis-trans isomerase FKBP1A (Homo sapiens, UniProt P62942). The assay can be described thus: Ability to displace radiolabeled FK-506 derivative from FK506 binding protein 12.
Chain of Peptidyl-prolyl cis-trans isomerase FKBP1A (P62942 whole entry): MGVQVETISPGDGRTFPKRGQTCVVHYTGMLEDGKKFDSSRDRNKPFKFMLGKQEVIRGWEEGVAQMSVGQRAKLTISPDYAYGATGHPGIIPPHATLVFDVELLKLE
`C=CCCC[C@H](OC(=O)[C@@H]1CCCCN1C(=O)C(=O)[C@@]1(O)CCCCO1)/C(C)=C/[C@@H]1CC[C@@H](O)[C@H](OC)C1`: the Kd (as a rule, the equilibrium constant for the complex coming apart) stood at 29 µM.

Turning to `C=CCCC[C@H](OC(=O)[C@@H]1CCCCN1C(=O)C(=O)[C@@]1(O)CC[C@H](OC)[C@@H](COC)O1)/C(C)=C/[C@@H]1CC[C@@H](O)[C@H](OC)C1`, binding was characterised by a dissociation constant (Kd) of 40 µM.

Regarding `C=CCCC[C@H](OC(=O)[C@@H]1CCCCN1C(=O)C(=O)[C@]1(O)O[C@H](COC)[C@@H](OC)C[C@H]1C)/C(C)=C/[C@@H]1CC[C@@H](O)[C@H](OC)C1`, the Kd came out at 0.01 µM.

Values taken from ChEMBL document CHEMBL1127912, “The contribution to binding of the pyranoside substituents in the excised binding domain of FK-506” (Bioorg Med Chem Lett, 1994).
